According to patent publication US11998602B2, “Methods for promoting myelination and for treating demyelinating diseases” (The Scripps Research Institute, priority 2018, dated 2024):

What was measured:
[1] = test system: Rat primary optic nerve OPCs; test: In vitro OPC differentiation assay, MBP expression by Western blot; assay type: cell-based; details: for Effect of supplementation on drug-induced OPC differentiation: added to drug-induced differentiation conditions; for Observed maximal in vitro efficacy of OPC differentiation compared to T3: drug alone
Method: Rat primary optic nerve OPCs were isolated by panning (>99% A2B5^+) and cultured in poly-D-lysine (10 μg/ml)-coated TC dishes in OPC culture media (Neurobasal Media, Invitrogen) supplemented with B27-without vitamin A (Invitrogen), 1× non-essential amino acids, 1× Glutamax, 1× anti-anti, β-mercaptoethanol and PDGF-AA (50 ng/ml; Peprotech) at 37° C. with 5% CO2. The culture medium was replaced every 48 h and cells were collected before the confluency reached 60% to maintain a naive state. For differentiation, OPCs were plated at 1 million cells in one 10 cm petri-dish filled with differentiation media, which is identical to the culture media, but with PDGF-AA at 2 ng/ml. T3 and DMSO were used as the positive control and negative control, respectively. Five replicates of cells were collected at different times (0, 3, and 6 days) for metabolomics studies.
Western blot analysis. OPCs were plated in basal differentiation medium at 1.7×10^5 cells/well and treated for 6 days with benztropine (0.5 μM), miconazole (2 μM) with and without the tested endogenous metabolites, T3 (1 μM) or DMSO. After washing with PBS, cells were collected in ice cold RIPA buffer containing protease and phosphatase inhibitors. Following incubation on ice for >20 min and sonication, lysed cells were centrifuged (16,000 g, 15 min at 4° C.). Total protein was quantified using a BCA analysis and 25 μg of protein from each sample was denatured by boiling with Bolt LDS Sample Buffer (4×) and Sample Reducing Agent (10×). Proteins were electrophoresed using Bolt 4-12% Bis-Tris gels (Life Technologies) and transferred to a PVDF membrane (Bio-Rad). The membrane was blocked with Odyssey PBS Blocking Buffer (LI-COR) and incubated overnight at 4° C. with anti-MBP (mouse, 1:2000) and anti-actin (mouse, 1:5000). Blots were incubated with […] secondary donkey anti-mouse antibody (LI-COR, 1:7500) and imaged using Odyssey CLx and Image Studio (LI-COR).

[2] = test system: primary mouse cortical neurons co-cultured with OPCs; test: In vitro OL maturation assay, MBP-colocalization with co-cultured axons; assay type: cell-based, rat; details: 0.5 μM benztropine, 1.0 μM miconazole or 2 mM taurine alone, 14 days
Method: In vitro OL maturation assay. Cortical and hippocampal tissue was dissected from C57BL/6 mice at embryonic day 14 and dissociated in 0.5% Trypsin with 100 U/mL DNase I diluted in HBSS (+/+) for 10 min at 37° C. Reaction was stopped by supplementing to a final concentration of 10% v/v FBS, 100 μg/mL Soybean Trypsin Inhibitor and 10 U/mL DNase I. Cells were resuspended in plating media consisting of equal volumes of FCS, HBSS (+/+), High-Glucose DMEM with L-glutamine, and F-12 with L-glutamine, then plated onto acid pre-washed German glass coverslips coated with 50 μg/mL Poly-D-Lysine and 20 μg/mL Laminin at a density of 50,000 cells/cm^2. Cells were allowed to attach for 2 hrs and then coverslips were rinsed with PBS before being transferred to a 24-well plate containing 0.5 mL growth media consisting of: Neurobasal medium, B27 supplement (Gibco), 0.5× Glutamax (Thermo), 5 μg/mL gentamycin and 5 μM glutamic acid. Half of the cell media was replaced after 3 DIV with supplemental growth media not containing glutamic acid^47. After 5 DIV, rat-derived cortical OPCs were added to the neuronal culture at a density of 5,000 cells/cm^2. Co-culture media used to resuspend and plate OPCs consisting of a 1:3 mixture of neuronal growth supplement (as above) and oligodendrocyte differentiation media, containing DMEM/F-12 (with L-glutamine), insulin-free N2 supplement, 1× Glutamax, 1×MEM non-essential amino acids, 1× β-mercaptoethanol, 2 ng/mL PDGF and 5 μg/mL gentamycin. All drugs and taurine co-treatment were added once to culture upon plating of OPCs at the following concentrations: 0.5 μM benztropine, 1.0 μM miconazole, each with or without 2 mM taurine. Cultures were maintained by replacing half of the media every three days, maintaining an equivalent concentration of taurine throughout in appropriate wells. […] Co-localization was quantified within regions of interest delineated as the periphery of individual oligodendrocytes. The co-localization index (adapted from a previously described method^48) was calculated as total proportion of co-localized 3D surface area between Tuj1 (neuron) and oligodendrocyte (MBP) over total Tuj1 (neuronal process) area enclosed within each oligodendrocyte process tree as the selected region of interest (ROI, see FIG. 3B″). Mean colocalization values for each condition were normalized to the DMSO condition mean analyzed statistically using Prism software (GraphPad, v7) for two-way ANOVA comparisons (Drug Treatment×Taurine Supplement) with Tukey post-tests for statistical significance. […]

[3] = test system: Rat primary optic nerve OPCs; test: High content imaging assay of OPC differentiation (MBP, A2B5, DAPI cell counts); assay type: cell-based
Method: Rat primary optic nerve OPCs were isolated by panning (>99% A2B5^+) and cultured in poly-D-lysine (10 μg/ml)-coated TC dishes in OPC culture media (Neurobasal Media, Invitrogen) supplemented with B27-without vitamin A (Invitrogen), 1× non-essential amino acids, 1× Glutamax, 1× anti-anti, β-mercaptoethanol and PDGF-AA (50 ng/ml; Peprotech) at 37° C. with 5% CO2. The culture medium was replaced every 48 h and cells were collected before the confluency reached 60% to maintain a naive state. For differentiation, OPCs were plated at 1 million cells in one 10 cm petri-dish filled with differentiation media, which is identical to the culture media, but with PDGF-AA at 2 ng/ml. T3 and DMSO were used as the positive control and negative control, respectively. Five replicates of cells were collected at different times (0, 3, and 6 days) for metabolomics studies. High content imaging. For dose-response co-treatment experiments, black, clear-bottom 384-well plates (Greiner) were coated with poly-D-lysine (10 μg ml^−1 in PBS). miconazole and benztropine were added at 8 doses in differentiation media; 3-fold dilutions down from 10 μM. taurine was then added at 8 concentrations; 3-fold dilutions down from 20 mM. This 384-well format was also utilized for experiments combining benztropine (0.5 μM), miconazole (2 μM) or T3 (1 μM) with propargylglycine (0.1, 3, 10, 30 μM), reduced glutathione (1, 10, 30, 100 μM) or ascorbic acid ([…]). OPCs were then seeded at a density of 1,000 cells per well, and the plates were incubated at 37° C. with 5% CO2 for 6 days. For time course experiments, cells were seeded at a density of 5,000 cells per well in poly-D-lysine-coated 96-well plates. Cells were treated with DMSO (0.1%), benztropine (0.5 μM), miconazole (2 μM) or T3 (1 μM) on day 0, and taurine (20 mM) was added in combination at 0, 1 or 3 days post-drug treatment. The plates were incubated at 37° C. with 5% CO2 for 6 days. On day 6, cells were then fixed for 20 min with 4% formaldehyde solution and stained with mouse anti-Myelin Basic Protein (MBP) antibody (MAB382, Millipore) or anti-A2B5 antibody (MAB312, Millipore) in 3% BSA, 0.3% Triton X-100 with overnight incubation at 4° C. The cells were washed and incubated with secondary antibody (goat anti-mouse Alexa Fluor488) and DAPI (Invitrogen) for 1 h at room temperature. The cells were washed and plates were sealed and imaged using an Opera confocal imaging reader (Perkin Elmer) or a Cellomics Cell Insight imaging reader (Thermo). An air ×10 lens was used to capture 9 images per well at both wavelengths (488 and 365 nm), with each image representing a different unique locations field in a single well. For image analysis, DAPI-stained nuclei and MBP-positive or A2B5-positive cell bodies were detected using an algorithm that selects for positive cell bodies and nuclei within a range of fluorescent emission values and sizes as determined by fitting parameters to positive (T3, 1 μM) and negative controls (DMSO, 0.1%). The numbers of DAPI-positive objects were enumerated in experiments where cell counts were required. Numerical results from the analyzed images were later exported for analysis using Excel (Microsoft) and/or Genedata software.

OPCs = test: Mitochondrial respiration assay (oxygen consumption rate, XFe96 Seahorse); assay type: cell-based, rat; details: miconazole treatment alone
Method: Mitochondrial respiration assay. Cellular oxygen consumption rate (OCR) was measured using an XFe96 extracellular flux analyzer (Seahorse Biosciences). OPCs were seeded at 40,000 cells/well in PLP-coated XFe96 plates and cultured for 6 days with taurine (2 and 20 mM) alone, or together with miconazole and benztropine. Cells were then incubated in assay medium (DMEM with 20 mM glucose, 5 mM pyruvate and 5 mM sodium bicarbonate, pH˜7.4) for at least 30 min prior to the assay. Media to deliver a final assay well concentration corresponding to of 1 μM oligomycin, 2 μM carbonyl cyanide 4-(trifluoromethoxy) phenylhydrazone (FCCP) and 2 μM rotenone+2 μM antimycin A were pre-loaded into the compound delivery ports of the system. The assay starts with the recording of the basal OCR, followed by recording of the OCR in response to different compounds that constitute the Mitochondria Stress Test (Seahorse Biosciences, Agilent). Once the basal OCR was measured, the compounds were added sequentially and the effects on OCR measured 3 times every 5 min. Oligomycin blocks ATP synthase; FCCP dissipates the inner membrane potential enabling maximum electron flux through the electron transport chain (ETC); rotenone+antimycin A inhibit complexes I and III, respectively, thereby blocking the entry of electrons in the ETC and shutting down mitochondrial activity.

CN(CC(=O)O)C(=N)NP(=O)(O)O [PCr, phosphocreatine]
Effect of supplementation on drug-induced OPC differentiation [1]: some additive effects

CN1[C@@H]2CC[C@H]1C[C@@H](OC(c1ccccc1)c1ccccc1)C2 [benztropine, reference compound]
MBP-colocalization with axons, treatment alone vs. DMSO (Tukey post hoc) [2]: significant | Observed maximal in vitro efficacy of OPC differentiation compared to T3 [1]: suboptimal

C#CCC(N)C(=O)O (stereo not shown) [PPG, propargylglycine]
Impact on differentiation efficiency under basal vehicle treated conditions ([3]; PPG): virtually no impact | Observed efficacy of drug-induced differentiation ([3]; PPG 10 μM added at day 0 or day 3, all drug-induced conditions): significantly enhance | Overall cell number with T3 treatment ([3]; PPG 10 μM, T3 1 μM): enhance | Impact on overall survival in OPC cultures ([3]; PPG, DMSO, benztropine (0.5 μM) or miconazole (2 μM)): not found to impact

CN(CC(=O)O)C(=N)N [creatine]
Effect of supplementation on drug-induced OPC differentiation [1]: some additive effects

reduced glutathione
Differentiation efficiency (MBP-positive OLs) under basal conditions ([3]; 10 μM GSH, DMSO, day 6): no significant effect | Observed total nuclei count in T3-induced differentiation ([3]; 10 μM GSH, T3 (1 μM), day 6): significantly enhance | Overall efficiency of T3-induced differentiation ([3]; 10 μM GSH, T3 (1 μM), day 6): significantly enhance | Impact on total cell number in benztropine- or miconazole-induced differentiation ([3]; reduced glutathione): not found to be significant | Overall efficiency of benztropine- or miconazole-induced differentiation ([3]; reduced glutathione, lesser extent than following taurine addition): enhance

Clc1ccc(COC(Cn2ccnc2)c2ccc(Cl)cc2Cl)c(Cl)c1 (stereo not shown) [miconazole, reference compound]
Impact on OCR values compared to DMSO or benztropine treatment (OPCs): negative impact | MBP-colocalization with axons, treatment alone vs. DMSO (Tukey post hoc) [2]: no significant difference | Observed maximal in vitro efficacy of OPC differentiation compared to T3 [1]: suboptimal
